One assay deals with T1, streptavidin (Streptomyces avidinii, UniProt P22629).
T1 construct: purchased GE Healthcare (Little Chalfont, UK)
T1 sequence (P22629 25-183): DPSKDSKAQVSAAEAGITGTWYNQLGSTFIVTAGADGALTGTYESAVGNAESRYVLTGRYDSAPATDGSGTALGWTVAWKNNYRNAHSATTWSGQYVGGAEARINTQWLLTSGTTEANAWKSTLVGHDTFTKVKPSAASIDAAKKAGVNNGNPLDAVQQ
Nature of the assay: Cy5-streptavidin binding on HotSpot discovery array, 5-mer L-peptide library. To be noted: 5-mer L-peptide library array, Cy5-streptavidin; from average of three arrays. An excerpt: To identify hotspot sequences that bind to streptavidin (SA), we bound Cy5-SA to an array library of 2,476,099 5-mer L-peptides synthesized with 19 of 20 natural amino acids (excluding cysteine). The fluorescence signal intensity was aggregated across three independently synthesized arrays; then the 2,047 peptides with a signal-to-background ratio (S/B) >4 were selected. The data was further filtered to select 1,100 peptides for which signal intensities were highly correlated on all 3 arrays (the percentage of mean deviation to mean was <10%, see Supplementary dataset Table 2A). Most selected sequences (1,019 of 1,100) contained HP, PQ, or PM sequences: their presence would be expected in the well-known HPQ and HPM streptavidin binders[13]–[18].
The comprehensive peptide library included 2,476,099 5-mer peptides synthesized in a single copy with 19 of 20 L- or D-amino acids (excluding cysteine). Libraries were flanked on both N- and C-termini by linkers of 1 or 3 amino acids using a 3:1 glycine-serine mixture.
Cy5™-streptavidin (Cy5-SA) was purchased from GE Healthcare (Little Chalfont, UK). Freshly deprotected arrays were used in each experiment. Streptavidin binding to all arrays was performed with 0.5 µg/ml Cy5-SA either in binding buffer containing 10 mM Tris-HCl (pH 7.4), 1% alkali-soluble casein (EMD Millipore), 0.05% Tween-20 or in 10 mM Tris-HCl (pH 7.4), 4% BSA (Roche, Basel, Switzerland), 0.05% Tween-20 in a 30 mL PAP Jar container (Evergreen Scientific, Vernon, CA) overnight at 4° C. After incubation, arrays were washed in 20 mM Tris-HCl (pH 7.8), 0.2 M NaCl, 1% SDS or 1X TBS (pH 7.4) for 30 sec followed by a 1 min wash in water, and then dried by spinning in a microcentrifuge equipped with an array holder.
Cy5 fluorescence intensity of the arrays was measured with an MS200 scanner (Roche NimbleGen, Madison, WI) at resolution 2 µm, wavelength 635 nm, gain 25%, and laser intensity 100%. Cy5 signal intensities were extracted using Image Extraction Software (Roche NimbleGen). Data pre-processing, normalization, and statistical tests were performed using the language R. Data visualization and analysis was performed with the Spotfire 6.5.0 (Tibco, Boston, MA) software platform. Distance analysis and principle component analysis of distance matrices were performed with the R package PEPLIB[19].
For the substance MHPQG, the “S/B (signal to background ratio)” value was 122.9.
On the same count and under the same terms, next, HFHPQ: 174.7; “LGPFH [L-amino acid 5-mer array peptide]”: 51.1; “LGQYH [L-amino acid 5-mer array peptide]”: 31.1.
Same read-out and setting: next, PGHPQ: 168.5.
Same read-out and setting: next, TFHPM: 52.6; THPMG: 43.8.
For VHPQF, the “S/B (signal to background ratio)” value was 135.2.
Still for that read-out and setting: in the case of KHPQV it was 33.0; in that of AAHPM, 35.3; in that of PHPQW, 23.8.
Same read-out and setting: in the case of FTHPQ it was 177.7; in that of RRHPM, 31.6; in that of SMHPQ, 142.0.
Still for that read-out and setting: in the case of NMHPQ it was 136.2.
Regarding NHPQQ, the “S/B (signal to background ratio)” value is recorded as 42.3.
Consider LYHPQ, for which the “S/B (signal to background ratio)” value came to 211.9.
As for LMHPQ, the “S/B (signal to background ratio)” value amounted to 161.1.
On the same count and under the same terms, next, LNHPQ: 152.2; SGHPQ: 128.5; DHPQK: 32.1.
On the same count and under the same terms, next, TSHPQ: 122.6.
Same read-out and setting: next, FHPMV: 27.2; PHHPQ: 140.8; PTHPQ: 130.7.
As for AHPQG, the “S/B (signal to background ratio)” value worked out at 120.5.
PHPQI: the “S/B (signal to background ratio)” value is 22.5.
For the substance LTHPQ, the “S/B (signal to background ratio)” value worked out at 150.0.
Regarding WNHPQ, the “S/B (signal to background ratio)” value worked out at 215.8.
Consider AAHPQ, for which the “S/B (signal to background ratio)” value worked out at 123.9.
Still for that read-out and setting: next, MHPMV: 20.7.
Still for that read-out and setting: in the case of THPQG it was 125.0.
The same measure, in the same setting: in the case of MWHPQ it was 192.7.
With WHPQK, the “S/B (signal to background ratio)” value is recorded as 42.1.
In the case of DHPQS, the “S/B (signal to background ratio)” value is 49.1.
For the substance HHPMF, the “S/B (signal to background ratio)” value is 19.8.
The same measure, in the same setting: in the case of HPQSS it was 28.2.
Still for that read-out and setting: next, “LASYH [L-amino acid 5-mer array peptide]”: 25.7.
Still for that read-out and setting: in the case of NHPQI it was 21.1; in that of FHPMS, 46.0; in that of NRHPM, 48.6.
Turning to HPQNR, the “S/B (signal to background ratio)” value was determined as 50.5.
On the same count and under the same terms, in the case of QWHPQ it was 173.7.
Still for that read-out and setting: next, YGHPQ: 210.5; HPQNK: 28.4; TNHPM: 57.8.
The same measure, in the same setting: in the case of HPQQS it was 19.2.
Regarding MIHPM, the “S/B (signal to background ratio)” value amounted to 32.1.
Same read-out and setting: next, ETHPQ: 49.0; YPHPQ: 190.5; HPQYA: 20.2.
As for LFHPQ, the “S/B (signal to background ratio)” value is listed as 138.2.
The same measure, in the same setting: next, KWHPQ: 127.9; VFHPQ: 152.8; QYHPQ: 195.0.
Turning to RAHPQ, the “S/B (signal to background ratio)” value amounted to 147.2.
As for NGHPQ, the “S/B (signal to background ratio)” value is 144.3.
The same measure, in the same setting: in the case of VDHPM it was 26.0.
Regarding EQHPQ, the “S/B (signal to background ratio)” value came to 43.8.

Still in this assay, the particulars now being: 5-mer L-peptide library array, Cy5-streptavidin; from the average of three arrays.
As for WHPQH, the “S/B (signal to background ratio)” value worked out at 79.3.
Take PHPQF: the “S/B (signal to background ratio)” value is 98.8.
For the substance GHPQA, the “S/B (signal to background ratio)” value came out at 110.5.
HPQNS: the “S/B (signal to background ratio)” value amounted to 112.6.
Same read-out and setting: next, KGHPQ: 65.1; FEHPQ: 96.4; KVHPQ: 65.5.
Still for that read-out and setting: next, HPQFQ: 90.6; HPQGF: 63.7; MRHPM: 60.6.
Turning to KNHPQ, the “S/B (signal to background ratio)” value was determined as 104.8.
Same read-out and setting: next, YSHPM: 69.2; YHPQH: 62.5.
Regarding FVHPM, the “S/B (signal to background ratio)” value is 72.0.
Still for that read-out and setting: in the case of NRHPQ it was 115.2; in that of DHPQA, 83.3.
Same read-out and setting: next, HVHPQ: 105.7.
Consider IEHPQ, for which the “S/B (signal to background ratio)” value turned out to be 67.6.
The same measure, in the same setting: in the case of QHHPM it was 64.4.
The same measure, in the same setting: next, EYHPQ: 96.9.
Same read-out and setting: next, HPQVP: 62.1; HPQFF: 71.6.
With LHPQF, the “S/B (signal to background ratio)” value is reported as 107.9.
The same measure, in the same setting: in the case of PDHPQ it was 72.7.
As for MHPMA, the “S/B (signal to background ratio)” value is recorded as 62.7.
Regarding SKHPQ, the “S/B (signal to background ratio)” value was 66.3.
As for KFHPQ, the “S/B (signal to background ratio)” value was 81.9.

Staying with this assay, now noted: 5-mer L-peptide library, from the average of three arrays.
AHPQP: the “S/B (signal to background ratio)” value came out at 4.1.
On the same count and under the same terms, in the case of HHPGQ it was 4.3; in that of “FFMMF [L-amino acid 5-mer array peptide]”, 4.3.
Still for that read-out and setting: in the case of “NWEAV [L-amino acid 5-mer array peptide]” it was 4.1; in that of HGFPT, 4.2; in that of HPQYL, 4.7.
Regarding HPRWG, the “S/B (signal to background ratio)” value was found to be 4.2.
For the substance MHPMW, the “S/B (signal to background ratio)” value worked out at 4.3.
On the same count and under the same terms, next, “MGNHF [L-amino acid 5-mer array peptide]”: 4.3.
Same read-out and setting: next, RHPMT: 5.1.
Consider “PGWAH [L-amino acid 5-mer array peptide]”, for which the “S/B (signal to background ratio)” value is 4.8.
Same read-out and setting: next, PHPMW: 5.2; HPQLY: 4.1.

The same assay, now with this note: average of three arrays, L-peptide 5-mer library.
As to “NWDEW [L-amino acid 5-mer array peptide]”, the “S/B (signal to background ratio)” value is 7.8.
On to “PAWGH [L-amino acid 5-mer array peptide]”, for which the “S/B (signal to background ratio)” value worked out at 11.9.
The same measure, in the same setting: next, “LGPFH [L-amino acid 5-mer array peptide]”: 51.1; “LGQYH [L-amino acid 5-mer array peptide]”: 31.1; “FFMMF [L-amino acid 5-mer array peptide]”: 4.3.
For “NWEAV [L-amino acid 5-mer array peptide]”, the “S/B (signal to background ratio)” value came to 4.1.
On the same count and under the same terms, next, HGFPT: 4.2; “MPGHF [L-amino acid 5-mer array peptide]”: 5.6; “YHETH [L-amino acid 5-mer array peptide]”: 6.0.
As to “LASYH [L-amino acid 5-mer array peptide]”, the “S/B (signal to background ratio)” value is recorded as 25.7.
For “DWDKV [L-amino acid 5-mer array peptide]”, the “S/B (signal to background ratio)” value is on record as 5.7.
On to “MGNHF [L-amino acid 5-mer array peptide]”, for which the “S/B (signal to background ratio)” value is listed as 4.3.
“LAFYH [L-amino acid 5-mer array peptide]”: the “S/B (signal to background ratio)” value was 7.8.
Same read-out and setting: in the case of “PGWAH [L-amino acid 5-mer array peptide]” it was 4.8.

The same assay, now with this note: signal to background ratio; 5-mer L-peptide library array, Cy5-streptavidin.
For “NWDEW [L-amino acid 5-mer array peptide]”, the S/B stood at 7.8.
On the same count and under the same terms, in the case of HPMGH it was 15.2.
The same measure, in the same setting: next, “PAWGH [L-amino acid 5-mer array peptide]”: 11.9; HPMNR: 5.6.
Turning to HPQSF, the S/B came out at 13.1.
Still for that read-out and setting: next, DHPQT: 8.9; HHPMM: 18.7.
KHPQY: the S/B amounted to 18.3.
Same read-out and setting: in the case of HPQRV it was 5.3; in that of IHPQK, 11.6; in that of HPMRG, 9.3.
On the same count and under the same terms, next, “MPGHF [L-amino acid 5-mer array peptide]”: 5.6; THPMY: 10.9; HPQAI: 10.7.
Regarding HPQHV, the S/B was 13.6.
The same measure, in the same setting: next, “YHETH [L-amino acid 5-mer array peptide]”: 6.0; “DWDKV [L-amino acid 5-mer array peptide]”: 5.7.
Same read-out and setting: in the case of GEHPM it was 14.8; in that of RHPMM, 11.6; in that of “LAFYH [L-amino acid 5-mer array peptide]”, 7.8.
Same read-out and setting: in the case of IHPQD it was 10.4; in that of HPMGT, 12.0.

(Values after publication PMC5608804, “Stepwise Evolution Improves Identification of Diverse Peptides Binding to a Protein Target” (Scientific Reports, 2017).)
